The conditions of data set [1]: rat, in vivo; cited from earlier work.
For data set [2] the following is noted: human, in vivo; cited from earlier work.
A further data set addresses T1, human GSH receptor (Homo sapiens, UniProt Q92847).
T1 construct: The full length human GHS-R was subcloned into the mammalian expression vector pcDNA 3.1; expressed in transfected cells
As to the kind of experiment: In vitro GSH receptor mediated intracellular iCa2+ mobilization (Fura-2AM, CHO-K1 cells). Type of data set: cell-based. The settings on record: CHO-K1 cells expressing the human receptor, 37° C. The protocol:
2A. In vitro GSH Receptor Mediated Intracellular iCa^2+Mobilization
The foregoing CHO-K1 cells expressing the human GSH receptor were harvested by incubating in a 0.3% EDTA/phosphate buffered saline solution at 25° C.; the cells were then washed 2 times by centrifugation. The washed cells were resuspended in Hank's buffered saline solution (HBSS) for loading of the fluorescent Ca^2+ indicator Fura-2AM. Cell suspensions of approximately 10^6 cells/ml were incubated with 2 μM Fura-2AM for about 30 minutes at about 25° C. Unloaded Fura-2AM was removed by centrifugation twice in HBSS and the final suspensions were transferred to a spectrofluorometer (model Hitachi F-2000® Tokyo, Japan) equipped with a magnetic stirring mechanism and a temperature-regulated cuvette holder. After equilibration to 37° C., the ghrelin analogs were added for measurement of intracellular Ca^2+ mobilization. The excitation and emission wavelengths were 340 and 510 nm, respectively. An increase in the amount of Ca^2+ measured was indicative of agonist activity of a tested peptide while a decrease in the amount (or lack of) Ca^2+ measure was indicative of antagonist activity of a tested peptide.

The nature of data set [3]: Rat plasma ½ life (stability in plasma in a rat model). Type of data set: in vitro ADME. Here is the method: A selection of the preferred embodiments listed above was analyzed to determine stability, i.e. ½ life in plasma in a rat model using techniques known to those skilled in the art.

Read-outs that look alike come from different tables or passages of the source. * marks the point of attachment. Octanoyl = CCCCCCCC(=O)*

T1 sequence (Q92847 whole entry): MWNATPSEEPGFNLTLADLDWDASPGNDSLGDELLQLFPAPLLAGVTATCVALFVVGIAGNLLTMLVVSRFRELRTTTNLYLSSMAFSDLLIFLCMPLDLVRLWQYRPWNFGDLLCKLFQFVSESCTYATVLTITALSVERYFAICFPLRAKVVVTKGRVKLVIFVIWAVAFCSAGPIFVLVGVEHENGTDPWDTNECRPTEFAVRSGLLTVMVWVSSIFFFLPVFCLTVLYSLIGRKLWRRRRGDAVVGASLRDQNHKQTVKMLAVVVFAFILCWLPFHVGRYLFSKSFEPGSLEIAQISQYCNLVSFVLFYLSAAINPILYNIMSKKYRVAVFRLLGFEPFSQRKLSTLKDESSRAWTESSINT

In the case of “H-Gly-Ser-Ser-Phe-Leu-Ser-Pro-Glu-His-Gln-Arg-Val-Gln-Gln-Arg-Lys-Glu-Ser-Lys-Lys-Pro-Pro-Ala-Lys-Leu-Gln-Pro-Arg-NH2 (H-GSS(Octanoyl)FLSPEHQRVQQRKESKKPPAKLQPR-NH2; listed as Homo sapiens) [ghrelin]”, the “apparent half-life of exogenous ghrelin” value in data set [1] is 30 min; in data set [2] it was 10 min.

Regarding `CCCCCCNC(=O)CC[C@H](NC(=O)C(C)(C)NC(=O)C1CCN(C(C)=O)CC1)C(=O)N[C@@H](Cc1ccccc1)C(=O)N[C@@H](CC(C)C)C(=O)N[C@@H](CO)C(=O)N1CCC[C@H]1C(=O)N[C@@H](CCC(=O)O)C(=O)N[C@@H](Cc1c[nH]cn1)C(=O)NC(C)(C)C(=O)N[C@@H](CCCNC(=N)N)C(=O)N[C@H](C(=O)N[C@@H](CCC(N)=O)C(=O)N[C@@H](CCC(N)=O)C(=O)N[C@@H](CCCNC(=N)N)C(=O)N[C@@H](CCCCN)C(=O)N[C@@H](CCC(=O)O)C(=O)N[C@@H](CO)C(=O)N[C@@H](CCCCN)C(=O)N[C@@H](CCCCN)C(=O)N1CCC[C@H]1C(=O)N1CCC[C@H]1C(=O)N[C@@H](C)C(=O)N[C@@H](CCCCN)C(=O)N[C@@H](CC(C)C)C(=O)N[C@@H](CCC(N)=O)C(=O)N1CCC[C@H]1C(=O)N[C@@H](CCCNC(=N)N)C(N)=O)C(C)C` [Example 1, (Ac-Inp^1, Aib^2, 10, Glu(NH-hexyl)^3)hGhrelin(1-28)-NH2], on human GSH receptor, the “agonist/antagonist activity at the ghrelin receptor (intracellular Ca2+ mobilization)” value was “antagonistic activity”. Besides, in data set [3], the “Rat Plasma ½ life” value is 9.4 h.

Consider `CCCCCCNC(=O)CC[C@H](NC(=O)C(C)(C)NC(=O)C1CCNCC1)C(=O)N[C@@H](Cc1ccccc1)C(=O)N[C@@H](CC(C)C)C(=O)N[C@@H](CO)C(=O)N1CCC[C@H]1C(=O)N[C@@H](CCC(=O)O)C(=O)N[C@@H](Cc1c[nH]cn1)C(=O)NC(C)(C)C(=O)N[C@@H](CCCNC(=N)N)C(=O)N[C@H](C(=O)N[C@@H](CCC(N)=O)C(=O)N[C@@H](CCC(N)=O)C(=O)N[C@@H](CCCNC(=N)N)C(=O)N[C@@H](CCCCN)C(=O)N[C@@H](CCC(=O)O)C(=O)N[C@@H](CO)C(=O)N[C@@H](CCCCN)C(=O)N[C@@H](CCCCN)C(=O)N1CCC[C@H]1C(=O)N1CCC[C@H]1C(=O)N[C@@H](C)C(=O)N[C@@H](CCCCN)C(=O)N[C@@H](CC(C)C)C(=O)N[C@@H](CCC(N)=O)C(=O)N1CCC[C@H]1C(=O)N[C@@H](CCCNC(=N)N)C(N)=O)C(C)C` [Example 3, (Inp^1, Aib^2, 10, Glu(NH-hexyl)^3)hGhrelin(1-28)-NH2], for which the “agonist/antagonist activity at the ghrelin receptor (intracellular Ca2+ mobilization)” value at human GSH receptor is given as “antagonistic activity”. Further, the “Rat Plasma ½ life” value in data set [3] stood at 10.6 h.

These data come from US8299022B2, “Analogs of ghrelin substituted at the N-terminal” (IPSEN Pharma S.A.S., priority 2006, dated 2012).
